# Where two headings read alike, the source gives them in different places. Positions of bridges follow the written chain, without caps; N, C: chain ends. Primed or numbered codes have the meaning given here. PEG8′ = 8 PEG blocks attached at the backbone of the C-terminal amino acid
# B1: Peptide 1, Ac-RSI[CVWQDWGAHRC]T-NH2 (peptide)
# peptide: Ac-RSICVWQDWGAHRCT-NH2
# modifications: disulfide 4-14
# B2: Peptide 2, Ac-RSI[CVWQDWGAHRC]T-PEG8-NH2 (peptide)
# peptide: Ac-RSICVWQDWGAHRCT-{PEG8′-NH2}
# modifications: disulfide 4-14
# notes: Synthetic compstatin analog with an Arg-Ser N-terminal extension and a C-terminal PEG8; molecular mass 2279; also called PEGylated Peptide 2; PEGylated compstatin peptide
# B3: Competition Peptide, unlabeled, Ac-I[CVWQDWGAHRC]TAGK-NH2 (peptide)
# peptide: Ac-ICVWQDWGAHRCTAGK-NH2
# modifications: disulfide 2-12
# SMILES: CC[C@H](C)[C@H](NC(C)=O)C(=O)N[C@H]1CSSC[C@@H](C(=O)N[C@H](C(=O)N[C@@H](C)C(=O)NCC(=O)N[C@@H](CCCCN)C(N)=O)[C@@H](C)O)NC(=O)[C@H](CCCNC(=N)N)NC(=O)[C@H](Cc2c[nH]cn2)NC(=O)[C@H](C)NC(=O)CNC(=O)[C@H](Cc2c[nH]c3ccccc23)NC(=O)[C@H](CC(=O)O)NC(=O)[C@H](CCC(N)=O)NC(=O)[C@H](Cc2c[nH]c3ccccc23)NC(=O)[C@H](C(C)C)NC1=O
# What was measured:
# [1] = Apparent solubility measurements in PBS pH 7.4; assay type: physicochemical; conditions: PBS pH 7.4, 5-10 mg/mL
# Experimental: Compstatin analogs were dissolved in phosphate buffered saline (PBS) at pH 7.4 to concentrations of 10, 7.5, and 5 mg/mL. At each concentration point, the peptide solutions were vortexed for 30 seconds and then centrifuged at 13000×g for 5 minutes. The supernatant was collected and measured 5 times spectrophotometrically at 280 nm. Optical densities were converted into concentration according to Beer-Lambert law. An extinction coefficient of 11125 M^−1 cm^−1 was used for each compstatin analog since each peptide contains two tryptophan amino acids (tryptophan extinction coefficient being 5562.5 M^−1 cm^−1).
# [2] = system: complement activation; assay: Hemolytic assay (rabbit erythrocytes lysed by normal human serum in VBS-MgEGTA); assay type: cell-based; conditions: ligand concentration at 50% maximal inhibition, triplicate runs (N = 3)
# Experimental: Rabbit erythrocytes (Complement Technology, Inc, Tyler, Tex., USA) were washed with PBS and then resuspended in a veronal-buffered saline solution containing 5 mM MgCl2 and 10 mM EGTA (VBS-MgEGTA). Two-fold serial dilutions of the compstatin analogs were performed in round-bottom 96-well plates and then further diluted in VBS-MgEGTA. Normal human serum (NHS; Complement Technology, Inc) diluted in VBS-MgEGTA was added to each well followed by incubation at ambient temperature for 15 minutes. Subsequently, 30 μL of rabbit erythrocytes at a concentration of 1.25×10^8 cells/mL were added to each well. Positive controls for lysis consisted of: (1) erythrocytes in deionized water and (2) erythrocytes in NHS diluted with VBS-MgEGTA. Negative controls for lysis consisted of: (1) erythrocytes in VBS-MgEGTA and (2) erythrocytes in NHS diluted in VBS-EDTA. Next, plates were incubated at 37° C. for 20 minutes and then ice cold VBS containing 50 mM EDTA was added to each well to quench hemolytic reactions. Plates were centrifuged at 1000×g for 5 minutes and the supernatant was diluted 1:1 with deionized water in flat-bottom 96-well plates. Absorbance was measured spectrophotometrically at 405 nm to quantify lysis.
# [3] = system: NHS-induced basal C5b-9n deposition by RPE cells; assay: Human RPE cell-based assay, anti-C5b-9n immunofluorescence of sub-RPE deposits; conditions: for reduction in NHS-induced basal C5b-9n deposition: 2 μM peptide, 10% NHS, 24 h, decellularized whole mounts, normalized to NHS-treated samples
# Experimental: The in vitro model of drusen biogenesis was used according to Johnson et al. (Proceedings of the National Academy of Sciences of the United States of America 2011; 108(45):18277-82) and used in assessing the efficacy of compstatin peptides. Briefly, human fetal RPE cells within the second passage were grown on laminin-coated porous inserts (Millipore, Billerica, Mass., USA) in Miller medium supplemented with 5% fetal bovine serum (FBS, HyClone, Logan, Utah, USA) at 37° C. and 5% CO2 in a humidified incubator. After culturing for 2-3 months, cells were rinsed with PBS and treated with Miller medium containing either 5% FBS (negative control) or 10% NHS without or with the inhibitory peptides (2 μM). The choice of 2 μM dose for this assay was based on the intent to use double the IC50 concentration, which was determined to be ˜1 μM. All inhibitory peptides were pre-mixed with NHS on a rocker at room temperature for 30 min and then warmed to 37° C. prior to addition to RPE cell cultures for 24 h. […]
# Immunolabeled RPE sections and decellularized culture inserts were imaged using a Leica SP5 confocal microscope. Single-plane images from multiple non-overlapping areas were acquired using a 63× objective, and C5b-9n (MAC) immunofluorescence signals were quantified using ImageJ (NIH), as described Gorham et al. (Experimental Eye Research 2013; 116:96-108). Briefly, the thresholding tool of ImageJ was used to analyze each color channel separately, with the upper threshold set to include C5b-9n-associated fluorescence and the lower threshold set to eliminate any background fluorescence. For statistical analysis, fluorescence intensity measurements of C5b-9n were averaged with respect to the number of RPE nuclei per image (for vibratome sections) or total image area (for decellularized whole-mount samples) and then expressed as a percentage of the corresponding fluorescence intensities from samples exposed to NHS in the absence of any inhibitory peptide (positive control). All data were obtained from multiple images (n≧9) and expressed as mean±SEM. […]
# [4] = system: complement activation; conditions: alternative pathway-mediated erythrocyte lysis assay; cited from earlier work
# [5] = biological target: complement C3 in normal human serum (human, UniProt P01024 23-1663); assay: cell-based or functional assay
# [6] = biological target: T1, purified C3c (Complement Technology) (UniProt P01024 23-667; P01024 749-954; P01024 1321-1663, limits assumed); assay: competitive microscale thermophoresis (Monolith NT.115); Peptide 2 titrated against Cy5-labeled Competition Peptide on purified C3c
# T1 construct: domain: C3c; C3c is a multi-chain proteolytic fragment of C3; also called complement protein C3c
# Experimental: (§1) The binding affinity of Peptide 2 was evaluated in a competitive microscale thermophoresis assay, using a Monolith NT.115 instrument (NanoTemper Technologies GmbH, Munich, Germany). Competition was performed against the Competition Peptide, labeled with Cy5 for signal detection. Two different 1:1 serial dilution series of Peptide 2 were performed in MST buffer (50 mM Tris-HCl, 150 mM NaCl, 10 mM MgCl₂, 0.05% Tween 20). The first dilution series started with a final concentration of 333 μM and ended in a final concentration of 40.69 nM, while the second dilution series started with a final concentration of 166.67 μM and ended in a final concentration of 20.35 nM. To each dilution series of Peptide 2, purified C3c (Complement Technology) and the Competition Peptide (unlabeled form) were dissolved to final concentrations of 117 nM (Peptide 2) and 50 nM (Competition Peptide). The resulting mixture was incubated for 15 minutes in the dark at room temperature. Following the incubation, the samples were loaded into hydrophilic capillary tubes and the thermophoretic response of the fluorescently labeled marker was measured. […]
# (§2) The binding affinity of Peptide 2 to C3c was determined using the microscale thermophoresis assay described herein. […]
# [7] = biological target: T1, purified C3c (Complement Technology); assay: competitive microscale thermophoresis: Peptide 2 titrated against C3c in the presence of the Cy5-labeled Competition Peptide, mean±SEM of 7 replicates
# Experimental: The labeled form of the Competition Peptide was used. Thermophoretic data is plotted as mean±SEM from 7 replicate experiments, together with the fitted binding curve. The dotted lines in red indicate the 95% confidence interval of the fitted binding curve. The black dotted line represents the baseline thermophoretic response in the absence of binding. The inset table indicates the KD±SEM.
# as §1, with “To each dilution series of Peptide 2, purified C3c (Complement Technology) and the Competition Peptide (unlabeled form) were dissolved to final concentrations of 117 nM (Peptide 2) and 50 nM (Competition Peptide). The resulting mixture was incubated for 15 minutes in the dark at room temperature.” left out
# as §2
# Sequence of complement C3 in normal human serum (P01024 23-1663 limits assumed): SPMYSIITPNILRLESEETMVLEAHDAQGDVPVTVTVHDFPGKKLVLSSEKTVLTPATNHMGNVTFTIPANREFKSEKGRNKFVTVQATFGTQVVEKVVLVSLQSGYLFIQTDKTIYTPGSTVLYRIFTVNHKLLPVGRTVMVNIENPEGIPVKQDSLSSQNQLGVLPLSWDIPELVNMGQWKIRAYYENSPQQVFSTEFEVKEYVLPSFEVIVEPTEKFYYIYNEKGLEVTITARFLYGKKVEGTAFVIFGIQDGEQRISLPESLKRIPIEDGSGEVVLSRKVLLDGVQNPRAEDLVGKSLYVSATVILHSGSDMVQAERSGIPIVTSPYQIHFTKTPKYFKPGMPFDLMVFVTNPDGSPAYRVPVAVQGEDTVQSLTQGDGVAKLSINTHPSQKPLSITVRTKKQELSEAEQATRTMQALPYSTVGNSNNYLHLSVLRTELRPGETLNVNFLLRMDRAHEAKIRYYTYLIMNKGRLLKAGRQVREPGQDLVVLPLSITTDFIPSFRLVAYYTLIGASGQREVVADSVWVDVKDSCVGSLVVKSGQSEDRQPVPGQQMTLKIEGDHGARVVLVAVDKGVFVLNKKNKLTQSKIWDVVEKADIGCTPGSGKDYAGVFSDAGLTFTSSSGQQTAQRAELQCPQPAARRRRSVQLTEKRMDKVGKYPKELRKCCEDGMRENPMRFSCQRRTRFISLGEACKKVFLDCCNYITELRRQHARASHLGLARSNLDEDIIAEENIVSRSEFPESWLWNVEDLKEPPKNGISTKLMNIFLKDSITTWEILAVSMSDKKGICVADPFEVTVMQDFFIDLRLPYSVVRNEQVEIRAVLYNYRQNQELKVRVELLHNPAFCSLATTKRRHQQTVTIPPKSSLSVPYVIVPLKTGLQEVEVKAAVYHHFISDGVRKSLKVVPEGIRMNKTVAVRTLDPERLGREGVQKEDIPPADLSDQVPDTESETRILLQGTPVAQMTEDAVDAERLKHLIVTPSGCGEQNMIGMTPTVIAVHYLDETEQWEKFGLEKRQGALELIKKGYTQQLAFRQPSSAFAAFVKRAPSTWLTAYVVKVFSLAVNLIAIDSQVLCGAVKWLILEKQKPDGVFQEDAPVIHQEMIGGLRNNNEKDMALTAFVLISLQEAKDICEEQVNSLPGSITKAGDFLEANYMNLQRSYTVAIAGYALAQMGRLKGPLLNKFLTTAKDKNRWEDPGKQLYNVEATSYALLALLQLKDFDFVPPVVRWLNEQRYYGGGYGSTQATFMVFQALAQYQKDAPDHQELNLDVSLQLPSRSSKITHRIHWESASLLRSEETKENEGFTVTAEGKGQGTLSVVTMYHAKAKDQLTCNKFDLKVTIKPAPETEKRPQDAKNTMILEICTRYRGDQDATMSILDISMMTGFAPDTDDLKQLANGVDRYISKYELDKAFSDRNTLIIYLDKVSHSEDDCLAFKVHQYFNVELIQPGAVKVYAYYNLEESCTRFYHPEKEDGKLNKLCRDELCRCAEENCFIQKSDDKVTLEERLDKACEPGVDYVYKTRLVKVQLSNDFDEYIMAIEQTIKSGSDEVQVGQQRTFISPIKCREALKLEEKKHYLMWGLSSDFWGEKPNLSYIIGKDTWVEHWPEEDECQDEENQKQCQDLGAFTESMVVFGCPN
# T1 sequence (P01024 23-667 limits assumed, chain 1 of 3): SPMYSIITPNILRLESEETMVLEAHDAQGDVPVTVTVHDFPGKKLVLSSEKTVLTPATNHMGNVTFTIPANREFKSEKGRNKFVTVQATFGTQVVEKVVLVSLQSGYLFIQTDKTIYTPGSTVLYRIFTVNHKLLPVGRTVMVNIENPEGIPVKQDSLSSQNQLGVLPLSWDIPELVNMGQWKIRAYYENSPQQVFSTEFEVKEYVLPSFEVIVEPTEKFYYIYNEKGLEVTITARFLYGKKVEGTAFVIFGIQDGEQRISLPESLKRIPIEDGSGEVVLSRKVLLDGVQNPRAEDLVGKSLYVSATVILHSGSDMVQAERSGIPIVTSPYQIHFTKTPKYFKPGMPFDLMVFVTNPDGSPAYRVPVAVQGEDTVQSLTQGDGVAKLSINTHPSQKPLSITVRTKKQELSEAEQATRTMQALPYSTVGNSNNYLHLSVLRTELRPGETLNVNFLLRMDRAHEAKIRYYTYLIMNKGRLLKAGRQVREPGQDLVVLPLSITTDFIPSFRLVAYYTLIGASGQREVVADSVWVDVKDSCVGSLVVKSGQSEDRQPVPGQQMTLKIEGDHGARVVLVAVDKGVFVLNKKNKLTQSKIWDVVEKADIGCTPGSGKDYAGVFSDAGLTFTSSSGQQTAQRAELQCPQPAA
# T1 sequence (P01024 749-954 limits assumed, chain 2 of 3): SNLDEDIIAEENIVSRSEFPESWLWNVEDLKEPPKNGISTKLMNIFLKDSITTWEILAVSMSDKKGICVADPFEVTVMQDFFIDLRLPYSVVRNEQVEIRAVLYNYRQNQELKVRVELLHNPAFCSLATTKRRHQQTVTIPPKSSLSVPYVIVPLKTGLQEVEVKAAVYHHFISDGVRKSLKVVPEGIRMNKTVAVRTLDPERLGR
# T1 sequence (P01024 1321-1663 limits assumed, chain 3 of 3): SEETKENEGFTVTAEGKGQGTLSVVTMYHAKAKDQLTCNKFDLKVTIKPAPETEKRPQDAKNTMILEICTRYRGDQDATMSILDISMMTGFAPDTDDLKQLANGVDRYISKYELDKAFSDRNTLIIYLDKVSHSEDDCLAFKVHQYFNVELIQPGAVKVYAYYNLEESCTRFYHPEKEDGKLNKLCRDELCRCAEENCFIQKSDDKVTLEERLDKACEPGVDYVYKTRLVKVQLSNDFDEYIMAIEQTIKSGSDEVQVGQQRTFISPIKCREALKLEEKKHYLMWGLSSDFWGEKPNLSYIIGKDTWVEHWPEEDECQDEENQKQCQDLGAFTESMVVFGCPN
molecule,measurement,setting,value
"CC[C@H](C)[C@H](NC(=O)[C@H](CO)NC(=O)[C@H](CCCNC(=N)N)NC(C)=O)C(=O)N[C@H]1CSSC[C@@H](C(=O)N[C@H](C(=O)NCCOCCOCCOCCOCCOCCOCCOCCOCCC(N)=O)[C@@H](C)O)NC(=O)[C@H](CCCNC(=N)N)NC(=O)[C@H](Cc2c[nH]cn2)NC(=O)[C@H](C)NC(=O)CNC(=O)[C@H](Cc2c[nH]c3ccccc23)NC(=O)[C@H](CC(=O)O)NC(=O)[C@H](CCC(N)=O)NC(=O)[C@H](Cc2c[nH]c3ccccc23)NC(=O)[C@H](C(C)C)NC1=O [Peptide 2, Ac-RSI[CVWQDWGAHRC]T-PEG8-NH2]",apparent solubility (comparison),[1],significantly higher apparent solubility than the parent Peptide 1 and the Competition Peptide
same,slope of correlation between calculated and observed concentrations,[1]; absorbance at 280 nm,0.92
same,IC50,[2],0.96 µM
same,reduction in NHS-induced basal C5b-9n deposition,[3],80%
same,inhibitory effect relative to parent Peptide 1,[3]; formation of C5b-9-rich sub-RPE deposits,two-fold greater inhibitory effect
"CC[C@H](C)[C@H](N)C(=O)N[C@H]1CSSC[C@@H](C(=O)N[C@H](C(N)=O)[C@@H](C)O)NC(=O)[C@H](CCCN=C(N)N)NC(=O)[C@H](Cc2cnc[nH]2)NC(=O)[C@H](Cc2cnc[nH]2)NC(=O)CNC(=O)[C@H](Cc2c[nH]c3ccccc23)NC(=O)[C@H](CC(=O)O)NC(=O)[C@H](CCC(N)=O)NC(=O)[C@H](C(C)C)NC(=O)[C@H](C(C)C)NC1=O [compstatin, ICVVQDWGHHRCT]",IC50,[4],~12.9 µM
"Ac-RSI[CVWQDWGAHRC]T-NH2 (Ac-RSICVWQDWGAHRCT-NH2; disulfide 4-14) [Peptide 1, reference compound]",reduction in NHS-induced basal C5b-9n deposition,[3],50%
B1,"Mean IC50, hemolytic assay (rabbit erythrocytes, normal human serum, alternative pathway)",[5],0.97 µM
B2,Kd,[6],0.69 µM
same,"Mean IC50, hemolytic assay (rabbit erythrocytes, normal human serum, alternative pathway)",[5],0.96 µM
same,IC50 (read off the curve),[7],~0.7 µM
B3,"Mean IC50, hemolytic assay (rabbit erythrocytes, normal human serum, alternative pathway)",[5],1.4 µM

# From patent US20180057538A1, “POTENT AND HIGHLY SOLUBLE PEGYLATED COMPSTATIN PEPTIDES” (The Regents of the University of California, priority 2016, published 2018)
